Source: patent US6069150A, “Use of derivatives of tetrahydro-beta-carbolines as antimetastatic agents” (F. Hoffman-La Roche AG, priority 1996, dated 2000)
Read-outs that look alike come from different tables or passages of the source.

How the values were obtained:
[1] = biological target: T1, MMP8 (human neutrophil collagenase) (Homo sapiens, UniProt P22894); assay: in vitro test of inhibition of MMP8 (human neutrophil collagenase), fluorescent substrate degradation by catalytic domain of MMP8; type: biochemical; settings: for inhibition at 0.1 µg/mL: conc. 0.1 μg/ml
T1 construct: by means of the catalytic domain of MMP8
T1 sequence (P22894 100-262 limits assumed): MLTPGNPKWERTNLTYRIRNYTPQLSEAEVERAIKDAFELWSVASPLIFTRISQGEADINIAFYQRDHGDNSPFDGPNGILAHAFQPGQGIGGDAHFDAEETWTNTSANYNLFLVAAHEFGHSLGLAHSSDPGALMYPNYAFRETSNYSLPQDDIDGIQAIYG
Text: The compounds of the present invention have been tested in a pharmacological "in vitro" test of inhibition of MMP8 (human neutrophil collagenase). Said test provides for the determination via fluorescence of the inhibition of the degradation of a fluorescent substrate (DNP-Pro-Leu-Gly-Leu-Trp-Ala-D-Arg-NH2, M1855 Bachem) by means of the catalytic domain of MMP8.
1) DNP-substrate=DNP-Pro-Leu-Gly-Leu-Trp-Ala-D-Arg-NH2 (M1855 Bachem), M.W. 977.1 g/mol, concentration 25 (μM in DMSO; 2) measurement buffer=50 mM TRIS/100 mM NaCl/10 mM CaCl2.2H2 O, adjusted at pH 7.6 with hydrochloric acid. 3) Enzyme=catalytic domain of MMP8 (92 Kda), concentration 0.055 mg/ml in TRIS buffer. Substrate and enzyme are maintained at 0° C. with ice bath.
Total volume=1 ml of solution kept under stirring in a cuvette.
0.01 ml of inhibitor (10 (g/ml).
It is measured the fluorescence at 346 nm both of the control solution (without inhibitor) and of the solution containing the inhibitor. The inhibition of the catalytic activity of MMP8 results in the decrease in the DNP-substrate lysis, with related decrease in the fluorescence of the solution.
The percentage of inhibition is expressed by the following formula:
% Inhibition=100-(rel. unit/timewith inhibitor /rel.
By repeating the experiment at different concentrations of inhibitor it is possible to determine the IC50 value.

[2] = tested on: human fibrosarcoma HT1080 cells; assay: test of chemoinvasion (HT1080 cells through Type IV collagen coated Transwell filters); type: cell-based
Procedure: The compounds of the present invention have also shown activity in an "[…]" test of chemoinvasion. In the test of chemoinvasion the Costar Transwell chambers for cell culture (diameter: 6.5 mm; pore size: 8 μm) are coated with 100 μl of Type IV collagen (diluted solution 50 μg/ml, then evaporation overnight). With the same procedure the chambers are coated with a second layer of Type IV collagen (100 μl of solution at concentration 50 μg/ml). Before use, the chambers are rinsed twice with sterile water and incubated for about 1 hour at 37° C. in a serum-free medium (DMEM).
The human fibrosarcoma HT1080 cells are harvested by trypsin-EDTA treatment, washed with DMEM+10% FCS and incubated for at least 30 minutes at 37° C. in the same medium. The cells are then washed with serum-free DMEM and resuspended in serum-free DMEM added with 0.1% BSA (fraction V), counted and diluted to obtain a final density of 3×10^5 cell/ml. […]
Incubated filters are then washed with PBS, the cells are fixed 15 min in 4% paraformaldehyde, permeabilized in methanol (10 minutes, -20° C.) and stained with May-Grunwald-Giemsa. Cells which adhere to the top of the filters are removed with a cotton swab, filters are detached from the bottom of the chambers and analyzed with microscope to determine the number of cells on the lower side of the filters. […]

[3] = MMP8 catalytic domain, DNP-substrate, fluorescence at 346 nm, read-out: IC50 (converted)

SMILES | IC50 [1, 3] [nM] | inhibition at 0.1 µg/mL [1] [%] | IC50 ([2]; HT-1080, 24 h + 24 h) [nM] | inhibition at 0.1 µM ([2]; HT-1080, conc. 10^-7 M, 24 h + 24 h) [%] | inhibition at 10 µg/mL ([1]; conc. 10 μg/ml) [%] | IC50 [1] [nM]
O=C(O)C1Cc2c([nH]c3ccccc23)CN1 (centres unmarked) [1,2,3,4-tetrahydronorharman-3-carboxylic acid] | 324 | 100 | – | – | – | –
COc1ccc2[nH]c3c(c2c1)CCNC3C(=O)O (centres unmarked) [6-methoxy-1,2,3,4-tetrahydronorharman-1-carboxylic acid] | 203 | – | 200 | 56.5 | 100 | –
COc1ccc2[nH]c3c(c2c1)CCNC3 [6-methoxy-1,2,3,4-tetrahydronorharmane] | – | 100 | – | – | – | 297
